These are literature values, as cited in patent US20040005347A1, “Composition comprising cocoa” (N. V. NUTRICIA, priority 2001, published 2004).

The structures appear in SMILES notation.

One data set deals with serotonin levels. The following applies: in vitro.
The subject of a further data set is PMS related symptoms. The settings on record: supplementation.

For the compound `Cn1c(=O)c2c(ncn2C)n(C)c1=O` [caffeine], the serotonin levels result in the data set on serotonin levels was “increase”.
Take `[Mg+2]` [Magnesium]: the “PMS related symptoms, especially those related to mood” value in the data set with PMS related symptoms is recorded as “improves”.
